How the values were obtained:
[1] = system: IgE production by stimulated PBMC from asthmatic subjects; assay: IgE production in vitro by anti-CD40 mAb + rhIL-4 stimulated PBMC from asthmatic subjects (IgE ELISA of supernatants); type: cell-based, human; conditions: 10 day culture; for IgE: anti-CD40 mAb 1 ug/ml + rhIL-4 200 U/ml, ± SE, 5 asthmatic subjects; for inhibition at 0.1 µg/mL / inhibition at 1 µg/mL / inhibition at 10 µg/mL: Homo sapiens, PBMC, 240 h, versus anti-CD40 + rhIL-4 without treatment
Description: (§1) PBMC were separated from blood on a Ficoll-Paque (Pharmacia, Piscataway, N.J.) gradient (density 1.077). The PBMC were carefully removed using a transfer pipette (VWR Scientific, San Francisco, Calif.). Cells were washed twice in RPMI-1640 medium (GIBCO/BRL, Grand Island, N.Y.), resuspended in RPMI (3 ml), and counted on a hemocytometer (Fisher Scientific, Springfield, N.J.). Viability was >98%, as judged by trypan blue exclusion.
Studies of IgE responses induced in vitro were carried out according to the method of Sampson and Buckley in J. Immunol 1981, 127: 829-834. Briefly, PBMC (1.5×10^6 in 1 ml) were cultured +anti-CD40 mAb (1 ug/ml) (BD Pharmingen, San Diego, Calif.), ± recombinant human interleukin-4 (rhIL-4) (200 U/ml) (Genzyme Corp., Boston, Mass.), in the presence or absence of varying concentrations of either minocycline (Lederle Parenterals Inc., Carolina, Puerto Rico) or doxycycline (American Pharmaceutical Partner Inc., Schaumburg, Ill.), 0.1, 1.0, 10 ug/ml) for 0, 3, and 10 days at 37° C. in complete medium in a humidified 4% CO2 atmosphere. Cell viability was >98%, as judged by trypan blue exclusion, on day 10.
Antibiotics were reconstituted in sterile dH2O, according to manufacturer's recommendations. Complete medium contained RPMI-1640 (Fisher Scientific) and was supplemented with N-2-hydroxyethylpiperazine-N′-2-ethanesulfonic acid buffer (HEPES) (25 mM) (Fisher Scientific), penicillin (100 U/ml) (GIBCO/BRL), streptomycin (100 ug/ml) (Eli Lilly and Co., Indianapolis, Ind.), L-glutamine (2 mM) (GIBCO/BRL), and 10% Fetal Calf Serum (FCS) (GIB CO/BRL). The concentration of rhIL-4 in culture was within 1 bog of physiologic relevance (<100 U/ml), according to bioassay data provided by supplier.
(§2) For the in vitro quantitative determination of IgE content in cell culture supernatants, solid phase sandwich enzyme linked immunosorbent assays (ELISAs) were performed using IgE ELISA Test Kits (Abexon Trend, Ramsey, Minn.). All ELISAs were performed according to the manufacturer's recommended procedure. Specimens were analyzed in duplicate and a standard curve was derived from known concentrations of IgE. Plates were read using an automated microplate reader (Model ELX800) (Bio-Tek Instruments, Inc., Winooski, Vt.), with a 450-nm measurement filter. Optical densities were converted to IU/ml and/or ng/ml. (1 IU=2.4 ng/IgE protein).

[2] = system: IgE production by PBMC from non asthmatic subjects; assay: IgE production in vitro by anti-CD40 mAb + rhIL-4 stimulated PBMC from non asthmatic subjects; type: cell-based, human; conditions: anti-CD40/rhIL-4
Description: as §1
Studies of IgE responses induced in vitro were carried out according to the method of Sampson and Buckley in J. Immunol 1981, 127: 829-834. […]
as §2, with “All ELISAs were performed according to the manufacturer's recommended procedure.” left out, “Optical densities were converted to IU/ml and/or ng/ml. (1 IU=2.4 ng/IgE protein).” left out

[3] = system: rheumatoid arthritis (RA) patients; conditions: mild and moderate RA patients; cited from earlier work

Row | SMILES | IgE ([1]; 0.1 ug/ml) | IgE ([1]; 1.0 ug/ml) | IgE ([1]; 10 ug/ml) | inhibition at 0.1 µg/mL ([1]; 0.1 ug/ml) | inhibition at 1 µg/mL ([1]; 1.0 ug/ml) | inhibition at 10 µg/mL ([1]; 10 ug/ml) | effect on IgE responses of PBMC of non asthmatic donors [2] | side effects [3]
1 | C[C@H]1c2cccc(O)c2C(=O)C2=C(O)[C@]3(O)C(=O)C(C(N)=O)=C(O)[C@@H](N(C)C)[C@@H]3[C@@H](O)[C@@H]21 [doxycycline] | 20 ± 9 ng/mL | 14 ± 7 ng/mL | 5 ± 2 ng/mL | 29% | 50% | 83% | no effect | 
2 | CN(C)c1ccc(O)c2c1C[C@H]1C[C@H]3[C@H](N(C)C)C(O)=C(C(N)=O)C(=O)[C@@]3(O)C(O)=C1C2=O [minocycline] | 16 ± 5 ng/mL | 18 ± 7 ng/mL | 5 ± 2 ng/mL | 43% | 36% | 83% | no effect | no side effects

Source: US20060128675A1, “Method for monitoring the effectiveness of teracycline in the treatment of asthma” (priority 2002, published 2006)
